Data as given in US10640506B2, “Cyclobutyl substituted pyrrolopyridine and pyrrolopyrimidines derivatives as JAK inhibitors” (Incyte Corporation, priority 2010, dated 2020).
Where a name gives a salt, the structure may show the parent alone. Read-outs that look alike come from different tables or passages of the source.

Key:
[1] = molecular target: human JAK1 (a.a. 837-1142) (Homo sapiens, UniProt P23458); test: In vitro JAK kinase assay (HTRF, phosphorylation of biotinylated peptide), JAK1; assay type: biochemical; details: 1 mM ATP, read-out: JAK1 IC50
Procedure, shortened: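 Phosphorylation of a biotinylated peptide was run at room temperature for 1 hour using the N-terminally His-tagged JAK1 kinase domain (837-1142) from insect cells. After an EDTA stop, Eu-Py20 and SA-APC gave an HTRF read; values are binned potency ranges.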

JAK2 (a.a. 828-1132) = molecular target: T1, JAK2 (a.a. 828-1132) (Homo sapiens, UniProt O60674); test: In vitro JAK kinase assay (HTRF, phosphorylation of biotinylated peptide), JAK2; assay type: biochemical; details: 1 mM ATP, read-out: JAK2 IC50
T1 construct: JAK2 (a.a. 828-1132); His tag (N)
Procedure, shortened: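 HTRF detection (Eu-Py20, SA-APC, 40 min) of biotinylated-peptide phosphorylation, following a 1 hour room-temperature reaction quenched with 45 mM EDTA. Enzymes: insect-cell-expressed N-terminal His-tagged JAK1 (837-1142) and JAK2 (828-1132) catalytic domains. Activities reported in ranged categories.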

Sequence of human JAK1 (a.a. 837-1142) (P23458 849-1154): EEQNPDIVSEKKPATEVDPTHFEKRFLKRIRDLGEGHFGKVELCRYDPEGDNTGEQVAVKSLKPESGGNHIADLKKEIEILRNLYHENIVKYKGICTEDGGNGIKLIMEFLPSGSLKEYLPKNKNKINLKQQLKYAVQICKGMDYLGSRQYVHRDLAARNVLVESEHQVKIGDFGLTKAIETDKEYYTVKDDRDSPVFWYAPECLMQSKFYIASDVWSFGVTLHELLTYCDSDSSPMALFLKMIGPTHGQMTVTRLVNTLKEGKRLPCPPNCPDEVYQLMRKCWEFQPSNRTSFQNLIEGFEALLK
T1 sequence (O60674 828-1132): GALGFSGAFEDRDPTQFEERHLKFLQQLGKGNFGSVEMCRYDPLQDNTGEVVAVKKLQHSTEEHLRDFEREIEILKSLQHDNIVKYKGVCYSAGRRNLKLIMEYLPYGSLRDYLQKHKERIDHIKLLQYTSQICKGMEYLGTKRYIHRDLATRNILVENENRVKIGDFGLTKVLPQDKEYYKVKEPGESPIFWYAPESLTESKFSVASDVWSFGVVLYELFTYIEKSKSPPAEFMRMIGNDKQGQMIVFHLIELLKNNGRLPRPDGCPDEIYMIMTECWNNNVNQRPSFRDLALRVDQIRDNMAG

Row | SMILES | IC50 ([1]; Table A) [nM] | IC50 (JAK2 (a.a. 828-1132); Table A) [nM] | IC50 ([1]; Table B) [nM] | IC50 (JAK2 (a.a. 828-1132); Table B) [nM] | also measured
1 | N#CC[C@]1(n2cc(-c3ncnc4[nH]ccc34)cn2)C[C@@H](N2CCN(C(=O)c3cccc(C(F)(F)F)n3)CC2)C1 [Example 20a, {cis-1-[4-(7H-pyrrolo[2,3-d]pyrimidin-4-yl)-1H-pyrazol-1-yl]-3-(4-{[6-(trifluoromethyl)pyridin-2-yl]carbonyl}piperazin-1-yl)cyclobutyl}acetonitrile] | < 10 | 25 to 100 |  |  | 
2 | N#CC[C@]1(n2cc(-c3ncnc4[nH]ccc34)cn2)C[C@H](N2CCN(C(=O)c3cccc(C(F)(F)F)n3)CC2)C1 [Example 20b, {trans-1-[4-(7H-pyrrolo[2,3-d]pyrimidin-4-yl)-1H-pyrazol-1-yl]-3-(4-{[6-(trifluoromethyl)pyridin-2-yl]carbonyl}piperazin-1-yl)cyclobutyl}acetonitrile] |  |  | < 10 | 25 to 100 | 
3 | N#CC[C@]1(n2cc(-c3ncnc4[nH]ccc34)cn2)C[C@@H](N2CCN(C(=O)c3cccc(C(F)F)n3)CC2)C1 [Example 21a, {cis-3-(4-{[6-(difluoromethyl)pyridin-2-yl]carbonyl}piperazin-1-yl)-1-[4-(7H-pyrrolo[2,3-d]pyrimidin-4-yl)-1H-pyrazol-1-yl]cyclobutyl}acetonitrile] | < 10 | 25 to 100 |  |  | 
4 | N#CC[C@]1(n2cc(-c3ncnc4[nH]ccc34)cn2)C[C@H](N2CCN(C(=O)c3cccc(C(F)F)n3)CC2)C1 [Example 21b, {trans-3-(4-{[6-(difluoromethyl)pyridin-2-yl]carbonyl}piperazin-1-yl)-1-[4-(7H-pyrrolo[2,3-d]pyrimidin-4-yl)-1H-pyrazol-1-yl]cyclobutyl}acetonitrile] |  |  | < 10 | 10 to 25 | 
5 | N#CC[C@]1(n2cc(-c3ncnc4[nH]ccc34)cn2)C[C@@H](N2CCN(C(=O)c3cccc(C(F)(F)F)c3F)CC2)C1 [Example 22, {cis-3-{4-[2-fluoro-3-(trifluoromethyl)benzoyl]piperazin-1-yl}-1-[4-(7H-pyrrolo[2,3-d]pyrimidin-4-yl)-1H-pyrazol-1-yl]cyclobutyl}acetonitrile] | < 10 | 25 to 100 |  |  | 
6 | N#CC[C@]1(n2cc(-c3ncnc4[nH]ccc34)cn2)C[C@@H](N2CCN(Cc3cncc(F)c3)CC2)C1 [Example 23a, {cis-3-{4-[(5-fluoropyridin-3-yl)methyl]piperazin-1-yl}-1-[4-(7H-pyrrolo[2,3-d]pyrimidin-4-yl)-1H-pyrazol-1-yl]cyclobutyl}acetonitrile] | 10 to 25 | > 100 |  |  | 
7 | N#CC[C@]1(n2cc(-c3ncnc4[nH]ccc34)cn2)C[C@H](N2CCN(Cc3cncc(F)c3)CC2)C1 [Example 23b, {trans-3-{4-[(5-fluoropyridin-3-yl)methyl]piperazin-1-yl}-1-[4-(7H-pyrrolo[2,3-d]pyrimidin-4-yl)-1H-pyrazol-1-yl]cyclobutyl}acetonitrile] |  |  | < 10 | 25 to 100 | 
8 | CC(C)c1nccc(C(=O)N2CCN([C@H]3C[C@@](CC#N)(n4cc(-c5ncnc6[nH]ccc56)cn4)C3)CC2)n1 [Example 24a, {cis-3-{4-[(2-isopropylpyrimidin-4-yl)carbonyl]piperazin-1-yl}-1-[4-(7H-pyrrolo[2,3-d]pyrimidin-4-yl)-1H-pyrazol-1-yl]cyclobutyl}acetonitrile] | 10 to 25 | > 100 |  |  | 
9 | CC(C)c1nccc(C(=O)N2CCN([C@H]3C[C@](CC#N)(n4cc(-c5ncnc6[nH]ccc56)cn4)C3)CC2)n1 [Example 24b, {trans-3-{4-[(2-isopropylpyrimidin-4-yl)carbonyl]piperazin-1-yl}-1-[4-(7H-pyrrolo[2,3-d]pyrimidin-4-yl)-1H-pyrazol-1-yl]cyclobutyl}acetonitrile] |  |  | 10 to 25 | 25 to 100 | 
10 | N#CC[C@]1(n2cc(-c3ncnc4[nH]ccc34)cn2)C[C@H](N2CCN(C(=O)N3CCCCC3)CC2)C1 [Example 25, {trans-3-[4-(piperidin-1-ylcarbonyl)piperazin-1-yl]-1-[4-(7H-pyrrolo[2,3-d]pyrimidin-4-yl)-1H-pyrazol-1-yl]cyclobutyl}acetonitrile] |  |  | 25 to 100 | > 100 | 
11 | N#CC[C@]1(n2cc(-c3ncnc4[nH]ccc34)cn2)C[C@@H](N2CCN(C(=O)c3ccc(F)c(OC(F)(F)F)c3)CC2)C1 [Example 26, {cis-3-{4-[4-fluoro-3-(trifluoromethoxy)benzoyl]piperazin-1-yl}-1-[4-(7H-pyrrolo[2,3-d]pyrimidin-4-yl)-1H-pyrazol-1-yl]cyclobutyl}acetonitrile] | 10 to 25 | 25 to 100 |  |  | 
12 | N#CC[C@]1(n2cc(-c3ncnc4[nH]ccc34)cn2)C[C@@H](N2CCN(C(=O)c3ncc(C(F)(F)F)cc3F)CC2)C1 [Example 27, {cis-3-(4-{[3-fluoro-5-(trifluoromethyl)pyridin-2-yl]carbonyl}piperazin-1-yl)-1-[4-(7H-pyrrolo[2,3-d]pyrimidin-4-yl)-1H-pyrazol-1-yl]cyclobutyl}acetonitrile] | < 10 | 25 to 100 |  |  | 
13 | N#CC[C@]1(n2cc(-c3ncnc4[nH]ccc34)cn2)C[C@@H](N2CCN(C(=O)c3ccc(Cl)cc3)CC2)C1 [Example 28, {cis-3-{4-[4-chlorobenzoyl]piperazin-1-yl}-1-[4-(7H-pyrrolo[2,3-d]pyrimidin-4-yl)-1H-pyrazol-1-yl]cyclobutyl}acetonitrile] | < 10 | 10 to 25 |  |  | 
14 | [2H][C@]1(N2CCN(C(=O)c3ccnc(C(F)(F)F)n3)CC2)C[C@@](CC#N)(n2cc(-c3ncnc4[nH]ccc34)cn2)C1 [Example 30, [cis-1-[4-(7H-pyrrolo[2,3-d]pyrimidin-4-yl)-1H-pyrazol-1-yl]-3-(4-{[2-(trifluoromethyl)pyrimidin-4-yl]carbonyl}piperazin-1-yl)cyclobutyl]acetonitrile-d1] |  |  |  |  | IC50 ([1]; Table C): < 10 nM; IC50 (JAK2 (a.a. 828-1132); Table C): > 100 nM
15 | [2H][C@]1(N2CCN(C(=O)c3ccnc(C(F)(F)F)n3)CC2)C[C@](CC#N)(n2cc(-c3ncnc4[nH]ccc34)cn2)C1 [Example 31, [trans-1-[4-(7H-pyrrolo[2,3-d]pyrimidin-4-yl)-1H-pyrazol-1-yl]-3-(4-{[2-(trifluoromethyl)pyrimidin-4-yl]carbonyl}piperazin-1-yl)cyclobutyl]acetonitrile-d1] |  |  |  |  | IC50 ([1]; Table D): < 10 nM; IC50 (JAK2 (a.a. 828-1132); Table D): 25 to 100 nM

Second part, led by results:

Row | IC50 ([1]; Table A) [nM] | IC50 (JAK2 (a.a. 828-1132); Table A) [nM] | IC50 ([1]; Table B) [nM] | IC50 (JAK2 (a.a. 828-1132); Table B) [nM] | SMILES | also measured
16 | 10 to 25 | 25 to 100 |  |  | N#CC[C@]1(n2cc(-c3ncnc4[nH]ccc34)cn2)C[C@@H](N2CCN(C(=O)c3ccc(C(F)(F)F)cc3F)CC2)C1 [Example 29, {cis-3-{4-[2-fluoro-4-(trifluoromethyl)benzoyl]piperazin-1-yl}-1-[4-(7H-pyrrolo[2,3-d]pyrimidin-4-yl)-1H-pyrazol-1-yl]cyclobutyl}acetonitrile 2.3×(trifluoroacetate) Salt] | 
17 |  |  | < 10 | > 100 | CN(C)C(=O)N1CCN([C@H]2C[C@](CC#N)(n3cc(-c4ncnc5[nH]ccc45)cn3)C2)CC1 [Example 32, 4-{trans-3-(cyanomethyl)-3-[4-(7H-pyrrolo[2,3-d]pyrimidin-4-yl)-1H-pyrazol-1-yl]cyclobutyl}-N,N-dimethylpiperazine-1-carboxamide] | 
18 |  |  | < 10 | < 10 | CN(C)Cc1cc(F)cc(C(=O)N2CCN([C@H]3C[C@](CC#N)(n4cc(-c5ncnc6[nH]ccc56)cn4)C3)CC2)c1 [Example 33, {trans-3-(4-{3-[(dimethylamino)methyl]-5-fluorobenzoyl}piperazin-1-yl)-1-[4-(7H-pyrrolo[2,3-d]pyrimidin-4-yl)-1H-pyrazol-1-yl]cyclobutyl}acetonitrile] | 
19 |  |  | < 10 | 10 to 25 | CN(C)Cc1cc(F)cc(CN2CCN([C@H]3C[C@](CC#N)(n4cc(-c5ncnc6[nH]ccc56)cn4)C3)CC2)c1 [Example 34, {trans-3-(4-{3-[(dimethylamino)methyl]-5-fluorobenzyl}piperazin-1-yl)-1-[4-(7H-pyrrolo[2,3-d]pyrimidin-4-yl)-1H-pyrazol-1-yl]cyclobutyl}acetonitrile] | 
20 |  |  | < 10 | < 10 | N#CC[C@]1(n2cc(-c3ncnc4[nH]ccc34)cn2)C[C@H](N2CCN(S(=O)(=O)C3CC3)CC2)C1 [Example 36, {trans-3-[4-(cyclopropylsulfonyl)piperazin-1-yl]-1-[4-(7H-pyrrolo[2,3-d]pyrimidin-4-yl)-1H-pyrazol-1-yl]cyclobutyl}acetonitrile] | 
21 |  |  | < 10 | < 10 | CN(C)S(=O)(=O)N1CCN([C@H]2C[C@](CC#N)(n3cc(-c4ncnc5[nH]ccc45)cn3)C2)CC1 [Example 37, 4-{trans-3-(cyanomethyl)-3-[4-(7H-pyrrolo[2,3-d]pyrimidin-4-yl)-1H-pyrazol-1-yl]cyclobutyl}-N,N-dimethylpiperazine-1-sulfonamide] | 
22 |  |  | < 10 | 25 to 100 | CCN(C)C(=O)N1CCN([C@H]2C[C@](CC#N)(n3cc(-c4ncnc5[nH]ccc45)cn3)C2)CC1 [Example 38, 4-{trans-3-(cyanomethyl)-3-[4-(7H-pyrrolo[2,3-d]pyrimidin-4-yl)-1H-pyrazol-1-yl]cyclobutyl}-N-ethyl-N-methylpiperazine-1-carboxamide] | 
23 |  |  | < 10 | 25 to 100 | CN(C)Cc1cc(C(=O)N2CCN([C@H]3C[C@](CC#N)(n4cc(-c5ncnc6[nH]ccc56)cn4)C3)CC2)cc(C(F)(F)F)c1 [Example 39, {trans-3-{4-[3-[(dimethylamino)methyl]-5-(trifluoromethyl)benzoyl]piperazin-1-yl}-1-[4-(7H-pyrrolo[2,3-d]pyrimidin-4-yl)-1H-pyrazol-1-yl]cyclobutyl}acetonitrile] | 
